Measurements taken from patent US8119630B2 (Arrow Therapeutics Limited, priority 2002, dated 2012).

Assays:
RSV [1] = experiment: XTT assay, RSV-infected Hep-2 cells; format: cell-based, Respiratory Syncytial Virus (RSV); conditions: Table 2, Examples 75 to 82 and 125 to 184, Hep-2 cells infected with RSV, 6 days at 37° C.
Protocol: Examples 75 to 82 and 125 to 184 were tested according to the protocol described below.
(§1) The inner 60 wells of 96 well tissue culture plates were seeded with Hep-2 cells at 4×10^4 cells/well for compound activity and toxicity studies in 100 μl of medium and incubated at 37° C. overnight or until nearing confluency.
(§2) Cells were infected with 25 μl RSV previously titrated to give 80% cell kill. To each well 25 μM of test compound were added. The final DMSO concentration was 0.5%. Some 200 μl of sterile distilled water were added to the outer wells of the plate and incubated at 37° C. for 6 days. Some 0.25 μl/ml PMS were added to stock […] solution, final conc. 25 μM PMS. Then 25 μl warmed XTT/PMS solution were added to each well and incubated for 1 hour at 37° C.
Maximum OD450nm reading (uninfected, untreated control cells) corresponded to 100% inhibition. Minimum OD450nm readings (infected control cells) corresponded to 0% inhibition. Log 10 concentration was plotted against OD450nm and IC50 values were calculated from either reading 50% value from graph or using regression analysis.

Hep-2 cells = experiment: Toxicity studies (XTT), Hep-2 cells; format: cell-based; set-up: TC50 (6d): unit not given beside the values; conditions: for TC50 (6d): Table 2, Examples 75 to 82 and 125 to 184, 6d, in µM; for TC50 (2d): Table 2, Examples 75 to 82 and 125 to 184, 2d
Protocol: as §1
as §2, with “Some 200 μl of sterile distilled water were added to the outer wells of the plate and incubated at 37° C. for 6 days.” left out

RSV [2] = experiment: XTT assay, RSV-infected Vero cells; format: cell-based, Respiratory Syncytial Virus (RSV); conditions: Vero cells infected with RSV, m.o.i.≈0.2, 6 days at 33° C.
Method in brief: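 Vero cells infected with RSV at m.o.i.≈0.2 in presence of serially ½-log diluted compound, incubated 6 days at 33 °C. Viability read by XTT/PMS (5 h, 37 °C) at OD450; uninfected untreated cells = 100%, infected controls = 0% inhibition. IC50 from graph or regression; parallel uninfected plates for toxicity.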

Vero cells = experiment: Simultaneous toxicity investigation (XTT), Vero cells; format: cell-based; set-up: unit not given here; conditions: for TC50 (2d): Table 2, Examples 83 to 124, 2d; for TC50 (6d): Table 2, Examples 83 to 124, 6d
Protocol: The inner 60 wells of 96 well tissue culture plates were seeded with Vero cells at 3×10^4 cells/well (1×10^4 cells/well for toxicity studies) in 100 or 150 μl of medium and incubated at 37° C. overnight or until nearing confluency. For primary screen, 25 μl compounds were added directly to 100 μl medium in single wells to duplicate plates. A third plate was prepared for simultaneous toxicity investigation.
For follow-up investigation, 70 μl of compound in duplicate wells were added directly to culture medium at 3.2× final concentration and ½ log serially diluted down columns of plate. A duplicate plate was prepared for simultaneous toxicity investigation.
Cells were infected with 25 μl RSV to give m.o.i.≈0.2. […] Some 0.25 μl/ml PMS were added to stock XTT solution, final conc. […]. Then 25 μl warmed XTT/PMS solution were added to each well and incubated for 5 hours at 37° C. Plates were shaken (DynaTech Vari-Shaker) vigorously for 10 mins and allowed to cool for 15 mins before sealing. Absorbance at 450 nm was measured and data analysed using Microsoft Excel software.

[3] = human respiratory syncytial virus, 144 h
[4] = human respiratory syncytial virus, Vero, 144 h, read-out: XTT IC50 (uM), Table 2, Examples 83 to 124
[5] = Table 2, Examples 83 to 124, read-out: XTT IC50

CN(C)c1ccc(C(=O)NC2N=C(c3ccccc3)c3ccccc3NC2=O)cn1 (stereo not drawn) [Example 174, 6-Dimethylamino-N-(2-oxo-5-phenyl-2,3-dihydro-1H-benzo[e][1,4]diazepin-3-yl)-nicotinamide]
IC50 (RSV [1]; [3]): 6.9 µM | TC50 (6d) (Hep-2 cells): 60

O=C(Nc1c(F)cccc1F)NC1N=C(c2ccccc2)c2ccccc2NC1=O (stereo not drawn) [Example 127, 1-(2,6-Difluoro-phenyl)-3-(2-oxo-5-phenyl-2,3-dihydro-1H-benzo[e][1,4]diazepin-3-yl)-urea]
IC50 (RSV [1]; [3]): 9.4 µM | TC50 (6d) (Hep-2 cells): >50

5-Methyl-furan-2-carboxylic acid (2-oxo-5-phenyl-2,3-dihydro-1H-benzo[e][1,4]diazepin-3-yl)-amide [Example 161]
IC50 (RSV [1]): 2 µM | TC50 (2d) (Hep-2 cells): 100 µM | TC50 (6d) (Hep-2 cells): 60

O=C1Nc2ccccc2C(c2ccccc2)=NC1NC(=O)n1c(=O)[nH]c2ccccc21 (stereo not drawn) [Example 177, 2-Oxo-2,3-dihydro-benzoimidazole-1-carboxylic acid (2-oxo-5-phenyl-2,3-dihydro-1H-benzo[e][1,4]diazepin-3-yl)-amide]
IC50 (RSV [1]; [3]): 4.3 µM | TC50 (6d) (Hep-2 cells): >50

O=C(Nc1cccc(C(F)(F)F)c1)NC1N=C(c2ccccc2)c2ccccc2NC1=O (stereo not drawn) [Example 130, 1-(2-Oxo-5-phenyl-2,3-dihydro-1H-benzo[e][1,4]diazepin-3-yl)-3-(3-trifluoromethyl-phenyl)-urea]
IC50 (RSV [1]; [3]): 9.7 µM | TC50 (6d) (Hep-2 cells): 39.5

Cc1ccc2c(c1)NC(=O)C(NC(=O)c1cccs1)N=C2c1ccccc1 (stereo not drawn) [Example 169, Thiophene-2-carboxylic acid (8-methyl-2-oxo-5-phenyl-2,3-dihydro-1H-benzo[e][1,4]diazepin-3-yl)-amide]
IC50 (RSV [1]; [3]): 5 µM | TC50 (2d) (Hep-2 cells): 50 µM | TC50 (6d) (Hep-2 cells): 30

O=C(NC1CCCCC1)NC1N=C(c2ccccc2)c2ccccc2NC1=O (stereo not drawn) [Example 149, 1-Cyclohexyl-3-(2-oxo-5-phenyl-2,3-dihydro-1H-benzo[e][1,4]diazepin-3-yl)-urea]
IC50 (RSV [1]; [3]): 1.5 µM | TC50 (2d) (Hep-2 cells): > 100 µM | TC50 (6d) (Hep-2 cells): >100

O=C(NC1N=C(c2ccccc2)c2ccccc2NC1=O)c1ccccc1I (stereo not drawn) [Example 138, 2-Iodo-N-(2-oxo-5-phenyl-2,3-dihydro-1H-benzo[e][1,4]diazepin-3-yl)-benzamide]
IC50 (RSV [1]; [3]): 8.3 µM | TC50 (6d) (Hep-2 cells): 51

COc1cc2ccccc2cc1C(=O)N[C@H]1N=C(c2ccccc2)c2ccccc2NC1=O [Example 82b, (S)-3-Methoxy-naphthalene-2-carboxylic acid (2-oxo-5-phenyl-2,3-dihydro-1H-benzo[e][1,4]diazepin-3-yl)-amide]
IC50 (RSV [1]; [3]): 1.5 µM | TC50 (6d) (Hep-2 cells): >50

O=C(NC1N=C(c2ccccc2)c2ccccc2NC1=O)c1cccc2c1C(=O)c1ccccc1-2 (stereo not drawn) [Example 176, 9-Oxo-9H-fluorene-1-carboxylic acid (2-oxo-5-phenyl-2,3-dihydro-1H-benzo[e][1,4]diazepin-3-yl)-amide]
IC50 (RSV [1]; [3]): 4.3 µM | TC50 (6d) (Hep-2 cells): 99

COc1cc(S(C)(=O)=O)ccc1C(=O)NC1N=C(c2ccccc2)c2ccccc2NC1=O (stereo not drawn) [Example 75a, 4-Methanesulfonyl-2-methoxy-N-(2-oxo-5-phenyl-2,3-dihydro-1H-benzo[e][1,4]diazepin-3-yl)-benzamide]
IC50 (RSV [1]; [3]): 2.4 µM

COc1ccccc1C(=O)NC1N=C(c2ccccc2)c2ccc(C)cc2NC1=O (stereo not drawn) [Example 111, 2-Methoxy-N-(8-methyl-2-oxo-5-phenyl-2,3-dihydro-1H-benzo[e][1,4]diazepin-3-yl)-benzamide]
IC50 (RSV [2]; [4]): 3 µM | TC50 (2d) (Vero cells): >100 | TC50 (6d) (Vero cells): >100

COc1ccc(C(=O)NC2N=C(c3ccccc3)c3ccccc3NC2=O)c(OC)c1 (stereo not drawn) [Example 107, 2,4-Dimethoxy-N-(2-oxo-5-phenyl-2,3-dihydro-1H-benzo[e][1,4]diazepin-3-yl)-benzamide]
IC50 (RSV [2]; [4]): < 0.3 µM | TC50 (2d) (Vero cells): 60 | TC50 (6d) (Vero cells): 60

O=C(Nc1cccc(Cl)c1Cl)NC1N=C(c2ccccc2)c2ccccc2NC1=O (stereo not drawn) [Example 119, 1-(2,3-Dichloro-phenyl)-3-(2-oxo-5-phenyl-2,3-dihydro-1H-benzo[e][1,4]diazepin-3-yl)-urea]
IC50 (RSV [2]; [4]): 2 µM | TC50 (2d) (Vero cells): >100 | TC50 (6d) (Vero cells): 30

1-(2-Chloro-6-methyl-phenyl)-3-(2-oxo-5-phenyl-2,3-dihydro-1H-benzo[e][1,4]diazepin-3-yl)-urea [Example 121]
IC50 (RSV [2]; [5]): 4 µM | TC50 (2d) (Vero cells): 60 | TC50 (6d) (Vero cells): 60

COc1ccc(C(=O)NC2N=C(c3ccccc3)c3ccccc3NC2=O)cc1[N+](=O)[O-] (stereo not drawn) [Example 89, 4-Methoxy-3-nitro-N-(2-oxo-5-phenyl-2,3-dihydro-1H-benzo[e][1,4]diazepin-3-yl)benzamide]
IC50 (RSV [2]; [4]): 0.8 µM | TC50 (2d) (Vero cells): >100 | TC50 (6d) (Vero cells): >100

COc1cccc(CCC(=O)NC2N=C(c3ccccc3)c3ccccc3NC2=O)c1 (stereo not drawn) [Example 97, 3-(3-Methoxy-phenyl)-N-(2-oxo-5-phenyl-2,3-dihydro-1H-benzo[e][1,4]diazepin-3-yl)-propionamide]
IC50 (RSV [2]; [4]): 5 µM | TC50 (2d) (Vero cells): >100 | TC50 (6d) (Vero cells): >100

N-[5-(3-Chloro-phenyl)-2-oxo-5-phenyl-2,3-dihydro-1H-benzo[e][1,4]diazepin-3-yl]-4-nitro-benzamide [Example 102]
IC50 (RSV [2]; [5]): 7 µM | TC50 (2d) (Vero cells): >100 | TC50 (6d) (Vero cells): >100

COc1ccc(CCC(=O)NC2N=C(c3ccccc3)c3ccccc3NC2=O)cc1 (stereo not drawn) [Example 98, 3-(4-Methoxy-phenyl)-N-(2-oxo-5-phenyl-2,3-dihydro-1H-benzo[e][1,4]diazepin-3-yl)-propionamide]
IC50 (RSV [2]; [4]): 5 µM | TC50 (2d) (Vero cells): >100 | TC50 (6d) (Vero cells): >100

COc1ccc(Cl)cc1C(=O)NC1N=C(c2ccccc2)c2ccccc2NC1=O (stereo not drawn) [Example 91, 5-chloro-2-methoxy-N-(2-oxo-5-phenyl-2,3-dihydro-1H-benzo[e][1,4]diazepin-3-yl)benzamide]
IC50 (RSV [2]; [4]): 0.3 µM | TC50 (2d) (Vero cells): 100 | TC50 (6d) (Vero cells): 100

COc1ccc([N+](=O)[O-])c(C(=O)NC2N=C(c3ccccc3)c3ccccc3NC2=O)c1 (stereo not drawn) [Example 94, 5-Methoxy-2-nitro-N-(2-oxo-5-phenyl-2,3-dihydro-1H-benzo[e][1,4]diazepin-3-yl)-benzamide]
IC50 (RSV [2]; [4]): 1.5 µM | TC50 (2d) (Vero cells): >100 | TC50 (6d) (Vero cells): >100

O=C(NCc1ccc(Br)cc1)NC1N=C(c2ccccc2)c2ccccc2NC1=O (stereo not drawn) [Example 118, 1-(4-Bromo-benzyl)-3-(2-oxo-5-phenyl-2,3-dihydro-1H-benzo[e][1,4]diazepin-3-yl)-urea]
IC50 (RSV [2]; [4]): 2 µM | TC50 (2d) (Vero cells): >100 | TC50 (6d) (Vero cells): 100

COc1cc([N+](=O)[O-])ccc1C(=O)NC1N=C(c2ccccc2)c2ccccc2NC1=O (stereo not drawn) [Example 93, 2-Methoxy-4-nitro-N-(2-oxo-5-phenyl-2,3-dihydro-1H-benzo[e][1,4]diazepin-3-yl)-benzamide]
IC50 (RSV [2]; [4]): < 0.3 µM | TC50 (2d) (Vero cells): 100 | TC50 (6d) (Vero cells): >100

CSc1ccccc1NC(=O)NC1N=C(c2ccccc2)c2ccccc2NC1=O (stereo not drawn) [Example 123, 1-(2-Methylsulfanyl-phenyl)-3-(2-oxo-5-phenyl-2,3-dihydro-1H-benzo[e][1,4]diazepin-3-yl)-urea]
IC50 (RSV [2]; [4]): 2 µM | TC50 (2d) (Vero cells): >100 | TC50 (6d) (Vero cells): 100

COc1cccc(C(=O)NC2N=C(c3ccccc3)c3ccccc3NC2=O)c1[N+](=O)[O-] (stereo not drawn) [Example 90, 3-Methoxy-2-nitro-N-(2-oxo-5-phenyl-2,3-dihydro-1H-benzo[e][1,4]diazepin-3-yl)-benzamide]
IC50 (RSV [2]; [4]): 0.5 µM | TC50 (2d) (Vero cells): 100 | TC50 (6d) (Vero cells): 100
